How the values were obtained:
[1] = target: human BRD4 first bromodomain (BDI_K57-E168) (Homo sapiens (Human), UniProt O60885); assay: TR-FRET bromodomain binding assay, BRD4 first bromodomain
[2] = Rat liver microsome stability assay; format: in vitro ADME; conditions: rat liver microsomes (male Sprague-Dawley), 0.5 μM test compound, pH 7.4, 37° C.; for half-life at 0.5 μM: 0.25 mg/mL microsomal protein, read-out: Stability in rat liver microsomes (t1/2 in minutes)
[3] = Mouse liver microsome stability assay; format: in vitro ADME; conditions: male, CD1, mouse, microsomes, pH 7.4
[4] = Human liver microsome stability assay; format: in vitro ADME; conditions: both sexes, human, microsomes, pH 7.4
[5] = target: human BRD4 second bromodomain (BDII_E352-M457) (Homo sapiens (Human), UniProt O60885); assay: TR-FRET bromodomain binding assay, BRD4 second bromodomain

Ki [1] [nM] | half-life at 0.5 μM [2] [min] | half-life at 0.5 μM [3] [min] | half-life at 0.5 μM [4] [min] | Ki [5] [nM] | Stability in rat liver microsomes (t1/2 in minutes) ([2]; […] microsomal protein) [min] | Compound
661 | > 120 | 42 | 37 | 1140 | – | Cn1cc(-c2cc(CC(=O)O)ccc2OCc2ccccc2)c2cc[nH]c2c1=O [Example 35, [4-(benzyloxy)-3-(6-methyl-7-oxo-6,7-dihydro-1H-pyrrolo[2,3-c]pyridin-4-yl)phenyl]acetic acid]
> 13000 | > 120 | > 120 | > 120 | > 22200 | – | Cn1cc(-c2ccccc2C(=O)N2CCOCC2)c2cc[nH]c2c1=O [Example 61, 6-methyl-4-[2-(morpholin-4-ylcarbonyl)phenyl]-1,6-dihydro-7H-pyrrolo[2,3-c]pyridin-7-one]
– | 34 | 18 | 81 | – | – | Cn1cc(-c2cc(C(=O)Nc3ccc4cn[nH]c4c3)ccc2Oc2ccc(F)cc2F)c2cc[nH]c2c1=O [Example 118, 4-(2,4-difluorophenoxy)-N-(1H-indazol-6-yl)-3-(6-methyl-7-oxo-6,7-dihydro-1H-pyrrolo[2,3-c]pyridin-4-yl)benzamide]
44.4 | 24 | 2 | 14 | 22.5 | – | Cn1cc(-c2cc(C(=O)N3CCN(C(=O)N4CCCC4)CC3)ccc2Oc2ccc(F)cc2F)c2cc[nH]c2c1=O [Example 119, 4-[2-(2,4-difluorophenoxy)-5-{[4-(pyrrolidin-1-ylcarbonyl)piperazin-1-yl]carbonyl}phenyl]-6-methyl-1,6-dihydro-7H-pyrrolo[2,3-c]pyridin-7-one]
190 | 12 | 10 | 19 | 304 | – | CN(C)c1ccc(NC(=O)c2ccc(Oc3ccc(F)cc3F)c(-c3cn(C)c(=O)c4[nH]ccc34)c2)cc1 [Example 120, 4-(2,4-difluorophenoxy)-N-[4-(dimethylamino)phenyl]-3-(6-methyl-7-oxo-6,7-dihydro-1H-pyrrolo[2,3-c]pyridin-4-yl)benzamide]
– | 16 | 2 | 8 | – | – | Cn1cc(-c2cc(C(=O)NCCN3CCCC3=O)ccc2Oc2ccc(F)cc2F)c2cc[nH]c2c1=O [Example 122, 4-(2,4-difluorophenoxy)-3-(6-methyl-7-oxo-6,7-dihydro-1H-pyrrolo[2,3-c]pyridin-4-yl)-N-[2-(2-oxopyrrolidin-1-yl)ethyl]benzamide]
215 | 23 | 12 | 45 | 274 | – | Cn1cc(-c2cc(C(=O)NCc3ccc(F)c(F)c3)ccc2Oc2ccc(F)cc2F)c2cc[nH]c2c1=O [Example 125, N-(3,4-difluorobenzyl)-4-(2,4-difluorophenoxy)-3-(6-methyl-7-oxo-6,7-dihydro-1H-pyrrolo[2,3-c]pyridin-4-yl)benzamide]
2000 | 21 | 25 | 100 | 768 | – | Cn1cc(-c2cc(C(=O)NCc3ccc(OC(F)(F)F)cc3)ccc2Oc2ccc(F)cc2F)c2cc[nH]c2c1=O [Example 126, 4-(2,4-difluorophenoxy)-3-(6-methyl-7-oxo-6,7-dihydro-1H-pyrrolo[2,3-c]pyridin-4-yl)-N-[4-(trifluoromethoxy)benzyl]benzamide]
– | 71 | 20 | 44 | – | – | CN(C)C(=O)CN1CCN(C(=O)c2ccc(Oc3ccc(F)cc3F)c(-c3cn(C)c(=O)c4[nH]ccc34)c2)CC1 [Example 127, 2-{4-[4-(2,4-difluorophenoxy)-3-(6-methyl-7-oxo-6,7-dihydro-1H-pyrrolo[2,3-c]pyridin-4-yl)benzoyl]piperazin-1-yl}-N,N-dimethylacetamide]
72.5 | 21 | 4 | 11 | 112 | – | Cn1cc(-c2cc(C(=O)NCc3cccnc3)ccc2Oc2ccc(F)cc2F)c2cc[nH]c2c1=O [Example 128, 4-(2,4-difluorophenoxy)-3-(6-methyl-7-oxo-6,7-dihydro-1H-pyrrolo[2,3-c]pyridin-4-yl)-N-(pyridin-3-ylmethyl)benzamide]
98.6 | 71 | 83 | > 120 | 60 | – | CN(C)CCNC(=O)c1ccc(Oc2ccc(F)cc2F)c(-c2cn(C)c(=O)c3[nH]ccc23)c1 [Example 131, 4-(2,4-difluorophenoxy)-N-[2-(dimethylamino)ethyl]-3-(6-methyl-7-oxo-6,7-dihydro-1H-pyrrolo[2,3-c]pyridin-4-yl)benzamide]
– | 5 | 3 | 4 | – | – | Cn1cc(-c2cc(C(=O)NCCc3c[nH]c4ccccc34)ccc2Oc2ccc(F)cc2F)c2cc[nH]c2c1=O [Example 133, 4-(2,4-difluorophenoxy)-N-[2-(1H-indol-3-yl)ethyl]-3-(6-methyl-7-oxo-6,7-dihydro-1H-pyrrolo[2,3-c]pyridin-4-yl)benzamide]
274 | 24 | 5 | 8 | 77.4 | – | Cn1cc(-c2cc(C(=O)N3CCC(NC(=O)OC(C)(C)C)CC3)ccc2Oc2ccc(F)cc2F)c2cc[nH]c2c1=O [Example 135, tert-butyl {1-[4-(2,4-difluorophenoxy)-3-(6-methyl-7-oxo-6,7-dihydro-1H-pyrrolo[2,3-c]pyridin-4-yl)benzoyl]piperidin-4-yl}carbamate]
– | 8 | 7 | 13 | – | – | Cn1cc(-c2ccccc2C(=O)c2ccc(Cl)cc2)c2cc[nH]c2c1=O [Example 139, 4-[2-(4-chlorobenzoyl)phenyl]-6-methyl-1,6-dihydro-7H-pyrrolo[2,3-c]pyridin-7-one]
– | 13 | 18 | 19 | – | – | Cn1cc(-c2ccccc2C(O)c2ccc(Cl)cc2)c2cc[nH]c2c1=O (stereo not shown) [Example 140, 4-{2-[(4-chlorophenyl)(hydroxy)methyl]phenyl}-6-methyl-1,6-dihydro-7H-pyrrolo[2,3-c]pyridin-7-one]
13.8 | 13 | 9 | 15 | 10.3 | – | Cn1cc(-c2cc(S(C)(=O)=O)ccc2Oc2cccc3nsnc23)c2cc[nH]c2c1=O [Example 171, 4-[2-(2,1,3-benzothiadiazol-4-yloxy)-5-(methylsulfonyl)phenyl]-6-methyl-1,6-dihydro-7H-pyrrolo[2,3-c]pyridin-7-one]
13.3 | 15 | 7 | 9 | 5.9 | – | Cn1cc(-c2cc(S(C)(=O)=O)ccc2Oc2ccc3ccncc3c2)c2cc[nH]c2c1=O [Example 172, 4-[2-(isoquinolin-7-yloxy)-5-(methylsulfonyl)phenyl]-6-methyl-1,6-dihydro-7H-pyrrolo[2,3-c]pyridin-7-one]
15.7 | 5 | 16 | 38 | 6.6 | – | Cn1cc(-c2cc(S(C)(=O)=O)ccc2Oc2cc(F)ccc2F)c2cc[nH]c2c1=O [Example 173, 4-[2-(2,5-difluorophenoxy)-5-(methylsulfonyl)phenyl]-6-methyl-1,6-dihydro-7H-pyrrolo[2,3-c]pyridin-7-one]
19.2 | 46 | 14 | 40 | 14.3 | – | Cn1cc(-c2cc(S(C)(=O)=O)ccc2Oc2ccc(F)c(F)c2)c2cc[nH]c2c1=O [Example 174, 4-[2-(3,4-difluorophenoxy)-5-(methylsulfonyl)phenyl]-6-methyl-1,6-dihydro-7H-pyrrolo[2,3-c]pyridin-7-one]
21.3 | 8 | 29 | 48 | 6 | – | Cn1cc(-c2cc(S(C)(=O)=O)ccc2Oc2cc(F)cc(F)c2)c2cc[nH]c2c1=O [Example 176, 4-[2-(3,5-difluorophenoxy)-5-(methylsulfonyl)phenyl]-6-methyl-1,6-dihydro-7H-pyrrolo[2,3-c]pyridin-7-one]
– | 66 | 8 | 27 | – | – | Cn1cc(-c2cc(S(C)(=O)=O)ccc2Oc2cccnc2)c2cc[nH]c2c1=O [Example 190, 6-methyl-4-[5-(methylsulfonyl)-2-(pyridin-3-yloxy)phenyl]-1,6-dihydro-7H-pyrrolo[2,3-c]pyridin-7-one]
– | – | 3 | 94 | – | 1 | CCS(=O)(=O)c1ccc(OC2CCC(=O)CC2)c(-c2cn(C)c(=O)c3[nH]ccc23)c1 [Example 199, 4-{5-(ethylsulfonyl)-2-[(4-oxocyclohexyl)oxy]phenyl}-6-methyl-1,6-dihydro-7H-pyrrolo[2,3-c]pyridin-7-one]
– | 9 | 4 | 39 | – | – | COc1cc(Br)ccc1-c1cn(C)c(=O)c2[nH]ccc12 [Example 241, 4-(4-bromo-2-methoxyphenyl)-6-methyl-1,6-dihydro-7H-pyrrolo[2,3-c]pyridin-7-one]
– | 3 | 12 | 47 | – | – | Cn1cc(-c2cc(CN3CCOCC3)ccc2OCC2CC2)c2cc[nH]c2c1=O [Example 316, 4-[2-(cyclopropylmethoxy)-5-(morpholin-4-ylmethyl)phenyl]-6-methyl-1,6-dihydro-7H-pyrrolo[2,3-c]pyridin-7-one]
